According to patent publication US11434490B2, “Fluorogen-binding RNA aptamers” (CENTRE NATIONAL DE LA RECHERCHE SCIENTIFIQUE, priority 2017, dated 2022):
“And” between values parts separate entries of the source, which are not always exact repeats. Equal values may be shown once.

Legend:
[1] = Fluorescence titration, binding affinity for TO1-ME; conditions: ligand TO1-ME
From the text: (§1) We determined the affinity and fluorescence enhancement of four compounds: TO1-OAc (TO1-acetate), TO1-ME (TO1-methylester), TO1-PA (TO1-propanylamide), TO1-PE (TO1-pentenoylester) (FIG. 42, Table 8 & 9). Binding affinity and fluorescence enhancement of TO1-OAc is drastically diminished, and nearly identical between the wild-type and A22U mutant. […] Further extension of the linker stabilizes the binding pocket by stacking on T3 but becomes sterically hindered by a bulky purine in position 22. The A22U mutation would limit steric clashes while preventing misfolding of the G-quadruplex core. Thus, the improved properties of the Mango-II A22U mutant may arise from improved packing of the linker of the fluorophore with an RNA with a homogeneous or predominant conformation.
(§2) Fluorescence readings were recorded using a Varian Cary Eclipse Spectrophotometer set to measure at the maximum excitation and emission wavelengths of the Mango II aptamer dye complex. Fluorescence titrations were performed in Mango selection buffer (WB: 140 mM KCl, 1 mM MgCl2, 10 mM NaH2PO4 pH 7.2, 0.05% Tween-20).

[2] = Fluorescence titration, binding affinity for TO3-Biotin; conditions: ligand TO3-B (TO3-Biotin)
From the text: FIG. 2|RNA Mango I, II, III and IV core sequences and their properties. (a) Color coded alignment of RNA Mango I, II, III and IV. G residues in yellow are protected from DMS cleavage (data from panel d) when folded in the presence of fluorophore. Quadruplex stacks and their associated propeller sequences are numbered 1 through 4. The GAAA isolation motif of Mango I, together with two adenines essential for binding, are shown in green and red respectively. Purple shading represents a flanking stem region common for all four Mango aptamers. Schematic: A tertiary structure schematic of Mango I, showing tier 1, 2 and 3 of its quadruplex structure (T1, T2 and T3) and color-coded as in (a). […] Bottom: Top view of the Mango I core (PBD ID: 5V3F), showing the T3 tier of the quadruplex and relevant propeller residues, color coding matches the schematic and panel a. […] KD values are shown next to each titration. (c) Same as for panel b but using 20 nM TO3-Biotin. Data for panels b and c have been normalized such that Mango I has a maximum fluorescence of 1. Error bars are standard deviation of three replicates. (d) DMS chemical protection patterns for the four Mango aptamers. 3′ end-labelled RNA (terminal ^32pCp shown as a black asterisk) was subjected to DMS chemical modification followed by reduction by NaBH4 and aniline cleavage as described in the methods. […] Legend: T1—denatured T1 ladder; OH—partial alkaline hydrolysis ladder; (−) DMS—denatured reaction with ddH2O added in place of DMS; 80° C.
Fluorescence data was gathered using a Varian Cary Eclipse Spectrophotometer unless otherwise stated. […] Fluorescence was measured at the maximum excitation and emission wavelengths of each complex (FIG. 13).
Or to the following equation for TO3-Biotin and NMM experiments: F([RNA])=Fmax[RNA]/(KD+[RNA])+Funbound (Eq. 2) Fmax was determined using Eq. 1 or Eq. 2 as appropriate. Temperature Dependent Fluorescence and UV Melting Curves
as §2

[3] = Fluorescence enhancement of TO1-OAc; assay type: biochemical; conditions: ligand TO1-OAc
Protocol: (§3) The bandwidth for all measurements was 1.5 nm for all experiments. Measurements were performed in a 0.2 cm path length cuvette in a background of 20 mM MOPS pH 7.0, 150 mM KCl, 10 μM EDTA. Fluorescence readings were taken in the absence of RNA at a ligand concentration of 0.82 μM. A concentrated, annealed stock of RNA was then added to the cuvette resulting in a final concentration of 2 μM RNA and allowed to equilibrate for 1 minute prior to taking an emission reading. Fluorescence enhancement was determined by dividing the fluorescence signal of ligand in the presence of RNA by the fluorescence signal in the absence of RNA corrected for the background of the instrument.

[4] = Fluorescence enhancement of TO3-Biotin; assay type: biochemical; conditions: ligand TO3-B; 0.82 μM ligand, 2 μM RNA
Protocol: as §3

[5] = Fluorescence titration, binding affinity for TO1-PA; conditions: ligand TO1-PA
From the text: as §1, §2

Mango-II: minimal construct engineered from isolate R2-1; SEQ ID NO: 6902 GCGUACGAAGGAGAGGAGAGGAAGAGGAGAGUACGC (chemistry not given here)
Kd [1]: 2.41 ± 0.54 nM
Kd [2]: 1.4 nM and ~1.4 nM
FIE (fluorescence enhancement) [3]: 258 ± 10
FIE (fluorescence enhancement) [4]: 61 ± 2
Kd [5]: 1.04 ± 0.57 nM

B1: Mango II - A22U: Mango-II point mutant; SEQ ID NO: 6903 / 6905 (nucleic acid)
chain 1: GCGUACGAAGGAGAGGAGAGGUAGAGGAGAGUACGC
chain 2: GGCACGUACGAAGGAGAGGAGAGGUAGAGGAGAGUACGUGC
modifications: chemistry not given here
Kd [1]: 4.81 ± 1.02 nM
Kd [2]: 5 ± 2.8 nM
FIE (fluorescence enhancement) [3]: 315 ± 4
FIE (fluorescence enhancement) [4]: 46 ± 3
Kd [5]: 2.21 ± 1.09 nM
